In test [1] the test system is sirtuin-5. The test is described as follows: Expression of the gene coding for sirtuin-5, quantitative RT-PCR in NHDF. The class given is cell-based. To be noted: normal human fibroblasts (NHDF), 10^−5 M in 0.1% DMSO, 24 hours, mRNA by quantitative RT-PCR. The protocol: In these examples, the expression of messenger RNAs was measured via the technique of quantitative RT-PCR (reverse transcription followed by polymerase chain reaction), after in vitro incubation of the various cell types in the absence or presence of the test compounds. This study was performed on normal human dermal fibroblasts (NHDF) or on normal human epidermal keratinocytes (NHEK), depending on the genes tested. The molecules were tested at 10^−5 M in aqueous 0.1% dimethyl sulfoxide (DMSO) solution. The cells were cultured at a concentration of 10,000 cells per well of 96-well plates, in the presence of standard culture medium as a function of the cell type. The compounds were then added at the test concentration, for 24 hours. The supernatant was removed and the cells were taken up in a specific buffer for extraction of the messenger RNAs (mRNA). The mRNAs were purified and reverse-transcribed in the presence of a commercial reverse transcriptase. The complementary DNAs (cDNA) obtained were used in a real-time quantitative PCR experiment, by means of suitable primers. The degree of expression of the mRNAs was normalized with five reference genes. The cells used for this example are normal human fibroblasts (NHDF). The contact with the test compounds was carried out for 24 hours. The results obtained, in terms of expression of sirtuin-5 (coded for by the gene of Genbank accession number: NC—000006.11) relative to the basal level (absence of compound) taken to 100%, are shown in Table 5 below.

The test system of test [2] is MMP-9 (matrix metalloprotease type 9). The test is described as follows: Gene expression of MMP-9, quantitative RT-PCR in NHEK. The test is classed as cell-based. Particulars: normal human keratinocytes (NHEK), 10^−5 M in 0.1% DMSO, 24 hours, mRNA by quantitative RT-PCR. The protocol: (§1) In these examples, the expression of messenger RNAs was measured via the technique of quantitative RT-PCR (reverse transcription followed by polymerase chain reaction), after in vitro incubation of the various cell types in the absence or presence of the test compounds.
(§2) This study was performed on normal human dermal fibroblasts (NHDF) or on normal human epidermal keratinocytes (NHEK), depending on the genes tested. The molecules were tested at 10^−5 M in aqueous 0.1% dimethyl sulfoxide (DMSO) solution.
(§3) The cells were cultured at a concentration of 10,000 cells per well of 96-well plates, in the presence of standard culture medium as a function of the cell type.
(§4) The compounds were then added at the test concentration, for 24 hours.
(§5) The supernatant was removed and the cells were taken up in a specific buffer for extraction of the messenger RNAs (mRNA). The mRNAs were purified and reverse-transcribed in the presence of a commercial reverse transcriptase.
(§6) The complementary DNAs (cDNA) obtained were used in a real-time quantitative PCR experiment, by means of suitable primers. The degree of expression of the mRNAs was normalized with five reference genes.
The cells used for this example were normal human keratinocytes (NHEK).
The contact with the test compounds was carried out for 24 hours.

The subject of test [3] is CRNN (Cornulin). Description: Expression of cell differentiation and adhesion gene CRNN, RT-PCR in NHEK. The class given is cell-based, human. To be noted: 10^−5 M, 24 hours, quantitative RT-PCR. On the procedure: as §1, §2, §3, §4, §5, §6
(§7) The cells used for this example are normal human keratinocytes (NHEK).
(§8) The contact with the test compounds was carried out for 24 hours. […]

Test [4] concerns SPARC (Osteonectin). The test is described as follows: Expression of extracellular matrix gene SPARC, RT-PCR in NHDF. Particulars: 10^−5 M, 24 hours, quantitative RT-PCR. The test is classed as cell-based, human. On the procedure:
as §1, §2, §3, §4, §5, §6
(§9) The cells used for this example are normal human fibroblasts (NHDF).
as §8

For test [5], the system named is COL5A1 (Collagen 5). The test is described as follows: Expression of extracellular matrix gene Collagen 5, RT-PCR in NHDF. The class given is cell-based, human. To be noted: 10^−5 M, 24 hours, quantitative RT-PCR. On the procedure: as §1, §2, §3, §4, §5, §6, §9, §8
For test [6], the system named is COL1A11 (Collagen 1). The test is described as follows: Expression of extracellular matrix gene Collagen 1, RT-PCR in NHDF. The test is classed as cell-based, human. Particulars: 10^−5 M, 24 hours, quantitative RT-PCR. On the procedure: as §1, §2, §3, §4, §5, §6, §9, §8
Test [7] has as its system ELN (Elastin). Description: Expression of extracellular matrix gene Elastin, RT-PCR in NHDF. To be noted: 10^−5 M, 24 hours, quantitative RT-PCR. The class given is cell-based, human. On the procedure: as §1, §2, §3, §4, §5, §6, §9, §8
The subject of test [8] is HAS3 (Hyaluronan synthase 3). Description: Expression of extracellular matrix gene Hyaluronan synthase 3, RT-PCR in NHDF. The test is classed as cell-based, human. To be noted: 10^−5 M, 24 hours, quantitative RT-PCR. On the procedure:
as §1, §2, §3, §4, §5, §6, §9, §8

Test [9] has as its system COL3A1 (Collagen 3). Description: Expression of extracellular matrix gene Collagen 3, RT-PCR in NHDF. The class given is cell-based, human. Particulars: 10^−5 M, 24 hours, quantitative RT-PCR. The protocol: as §1, §2, §3, §4, §5, §6, §9, §8
For test [10], the system named is EPPK1 (Epiplakin 1). The test is described as follows: Expression of cell differentiation and adhesion gene EPPK1, RT-PCR in NHEK. The test is classed as cell-based, human. Particulars: 10^−5 M, 24 hours, quantitative RT-PCR. On the procedure: as §1, §2, §3, §4, §5, §6, §7, §8
The subject of test [11] is SPINK5 (Serine peptidase Kazal type 5). The test is described as follows: Expression of cell differentiation and adhesion gene SPINK5, RT-PCR in NHEK. The class given is cell-based, human. Particulars: 10^−5 M, 24 hours, quantitative RT-PCR. On the procedure:
as §1, §2, §3, §4, §5, §6, §7, §8

For test [12], the system named is TGM1 (Transglutaminase 1). Description: Expression of cell differentiation and adhesion gene TGM1, RT-PCR in NHEK. To be noted: 10^−5 M, 24 hours, quantitative RT-PCR. The test is classed as cell-based, human. The protocol: as §1, §2, §3, §4, §5, §6, §7, §8
Test [13] relates to Collagen 1. The test is described as follows: Expression of Collagen 1 at the protein level by immunofluorescence in NHDF. The class given is cell-based, human. To be noted: 10 ppm in 0.1% DMSO, 24 hours, FIG. 1. The protocol: In this example, the expression of Collagen 1 was measured at the protein level via the immunofluorescence technique, after in vitro incubation of the cells in the absence or presence of the test compounds, at a concentration of 10 ppm in aqueous 0.1% DMSO solution.
The compound in accordance with the invention of formula (IIa) and the comparative compounds Comp.1 and Comp.2, of respective formula (IV) and (V), were tested.
TGFβ was used as positive control, at a concentration of 10 ng/ml in an aqueous solution. An untreated control was also realized.
This study was performed on normal human dermal fibroblasts (NHDF).
The cells were cultured at a concentration of 4000 cells per well in 96-well plates, in the presence of standard culture medium.
The compounds were then added at the test concentration, identical for all, for 24 hours.
The supernatant was removed and the cells were prepared for the fluorescent labeling. The cells were fixed in the presence of 3.7% formaldehyde, and then permeabilized in a buffer containing 1% Triton®, and finally the cells were rinsed and incubated in the presence of an anti-Collagen1 monoclonal antibody (Abcam) for one hour 30 minutes. After washing, the cells were incubated in the presence of the secondary antibody (Alexa GAM488, Invitrogen) for 1 hour. […]
The fluorescence was then quantified using an automated microscope (ArrayScan®, Cellomics®). […]

The test system of test [14] is EVPL (Envoplakin). Description: Expression of cell differentiation and adhesion gene EVPL, RT-PCR in NHEK. To be noted: 10^−5 M, 24 hours, quantitative RT-PCR. The class given is cell-based, human. On the procedure:
as §1, §2, §3, §4, §5, §6, §7, §8

The subject of test [15] is AQP3 (Aquaporin 3). The test is described as follows: Expression of cell differentiation and adhesion gene AQP3, RT-PCR in NHEK. To be noted: 10^−5 M, 24 hours, quantitative RT-PCR. The test is classed as cell-based, human. The protocol:
as §1, §2, §3, §4, §5, §6, §7, §8

Test [16] has as its system KRT1 (Keratin 1). Description: Expression of cell differentiation and adhesion gene KRT1, RT-PCR in NHEK. The class given is cell-based, human. Particulars: 10^−5 M, 24 hours, quantitative RT-PCR. The protocol:
as §1, §2, §3, §4, §5, §6, §7, §8

Test [17] relates to LAMA5 (Laminin alpha 5). The test is described as follows: Expression of extracellular matrix gene Laminin alpha 5, RT-PCR in NHDF. The test is classed as cell-based, human. To be noted: 10^−5 M, 24 hours, quantitative RT-PCR. The protocol: as §1, §2, §3, §4, §5, §6, §9, §8
The subject of test [18] is protein Klotho (KL). The test is described as follows: Expression of the gene coding for the protein Klotho (KL), quantitative RT-PCR in NHDF. To be noted: normal human fibroblasts (NHDF), 10^−5 M in 0.1% DMSO, 24 hours, mRNA by quantitative RT-PCR. The test is classed as cell-based. The protocol: as §1, §2, §3, §4, §5, §6, §9, §8

Structures are written as SMILES.

Take `O=C(/C=C/c1ccc(O)c(O)c1)NCCc1c[nH]c2ccc(O)cc12` [(IIf)]: the “Expression of sirtuin-5 relative to the basal level taken to 100%” value in test [1] amounted to 140%. The “Decrease of expression of MMP-9 relative to the basal level taken to 100%” value in test [2] is reported as −63%.

For the compound `COc1ccc2[nH]cc(CCNC(=O)/C=C/c3ccc(O)c(O)c3)c2c1` [(IIa), (2E)-3-(3,4-Dihydroxyphenyl)-N-[2-(5-methoxy-1H-indol-3-yl)ethyl]-2-propenamide], the “Expression of sirtuin-5 relative to the basal level taken to 100%” value in test [1] turned out to be 153%. Moreover, the “Gene expression relative to the basal level taken to 100%: CRNN (Cornulin)” value in test [3] is recorded as 261%. Also, the “Gene expression relative to the basal level taken to 100%: SPARC (Osteonectin)” value in test [4] is given as 118%. In test [5], the “Gene expression relative to the basal level taken to 100%: COL5A1 (Collagen 5)” value worked out at 144%. In [6], the “Gene expression relative to the basal level taken to 100%: COL1A11 (Collagen 1)” value stood at 133%. Further, the “Gene expression relative to the basal level taken to 100%: ELN (Elastin)” value in test [7] is given as 136%. Moreover, the “Gene expression relative to the basal level taken to 100%: HAS3 (Hyaluronan synthase 3)” value in [8] was 144%. Besides, the “Gene expression relative to the basal level taken to 100%: COL3A1 (Collagen 3)” value in test [9] came to 125%. Moreover, the “Gene expression relative to the basal level taken to 100%: EPPK1 (Epiplakin 1)” value in [10] amounted to 177%. In test [11], the “Gene expression relative to the basal level taken to 100%: SPINK5 (Serine peptidase Kazal type 5)” value is recorded as 173%. Further, in test [12], the “Gene expression relative to the basal level taken to 100%: TGM1 (Transglutaminase 1)” value turned out to be 183%. Besides, in test [13], the “Expression (production) of Collagen 1 relative to the basal level (control) taken to 100%” value is listed as “substantially stimulates the production of collagen 1 by the cells, as much as the positive control (TGFβ)”. Also, the “Gene expression relative to the basal level taken to 100%: EVPL (Envoplakin)” value in [14] amounted to 166%. For the same compound, the “Decrease of expression of MMP-9 relative to the basal level taken to 100%” value in [2] is on record as −67%. Further, the “Gene expression relative to the basal level taken to 100%: AQP3 (Aquaporin 3)” value in test [15] was found to be 228%. In addition, the “Gene expression relative to the basal level taken to 100%: KRT1 (Keratin 1)” value in test [16] is recorded as 142%. In [17], the “Gene expression relative to the basal level taken to 100%: LAMA5 (Laminin alpha 5)” value turned out to be 141%.

As to `COc1cc(/C=C/C(=O)NCCc2c[nH]c3ccc(O)cc23)ccc1O` [(IId)], in [2], the “Decrease of expression of MMP-9 relative to the basal level taken to 100%” value is −47%.

For `O=C(NCCc1c[nH]c2ccc(O)cc12)c1ccc(O)c(O)c1` [(IIe)], the “Expression of sirtuin-5 relative to the basal level taken to 100%” value in [1] amounted to 146%. Moreover, the “Decrease of expression of MMP-9 relative to the basal level taken to 100%” value in test [2] is listed as −81%.

In the case of `COc1ccc2[nH]cc(CCNC(=O)c3ccc(O)cc3O)c2c1` [(IIc)], in test [2], the “Decrease of expression of MMP-9 relative to the basal level taken to 100%” value is reported as −56%.

On to `COc1ccc2[nH]cc(CCNC(=O)/C=C/c3ccc(O)cc3)c2c1` [(IIb)], for which, in test [1], the “Expression of sirtuin-5 relative to the basal level taken to 100%” value is reported as 125%. Also, in [18], the “Expression of the protein Klotho relative to the basal level taken to 100%” value is reported as “+144%”.

Consider `O=C(NCCc1c[nH]c2ccccc12)c1ccc(O)cc1` [Comp.2, 4-hydroxy-N-[2-(1H-indol-3-yl)ethyl]benzamide, reference compound], for which the “Expression (production) of Collagen 1 relative to the basal level (control) taken to 100%” value in [13] is “do not stimulate, or only very sparingly stimulate”.

The values above are taken from patent US20150031740A1, “COSMETIC COMPOSITION FOR STIMULATING THE CELLULAR ANTI-AGING FUNCTIONS OF THE SKIN” (SYNTIVIA, priority 2011, published 2015).
